The data set in a line: In-vivo evaluation: phytocannabinoid serum concentrations after oral administration. More on the design: species or system mice (C57BL/6 J). Particulars: male, C57BL/6J, mouse, mice, 5 mg CBD/kg, 90 min after dosing, average ± standard error. How it is done: Animal studies were performed in compliance with the Guide for the Care and Use of Laboratory Animals established by the National Institutes of Health. All procedures and protocols were approved by the Technion Administrative Panel of Laboratory Animal Care (#:IL_050-05-2018).
Subjects 10 adult male mice (C57BL/6 J; The Jackson Laboratory), weighing 20-30 gr were housed in standard laboratory conditions with controlled temperature, humidity, light/dark cycle, ad libitum access to water and regular diet. The experiment was performed at noon, during the light cycle.
CME tea was prepared by pouring 13.3 ml of hot di-ionized water (80° c) over 20 mg of dry SE particles, resulting in CME concentration of […]. The mixture was then genteelly stirred until complete dissolution was observed.
The control solution was prepared by dissolving CME in a solution of 1:1:18 EtOH: Cremophor: PBS. First, 8.5 mg of CME were dissolved in 0.5 ml of EtOH. After that 0.5 ml of Cremophor was added and the mixture was stirred for one hour. Finally, 9 ml of PBS were added, and the mixture was stirred for 30 minutes. Both CME tea and control solution concentrations were calculated to match a dose of 5 mg CBD/kg for a volume intake of 200 μl and an average mouse weight of 25 gr.
For both the control group (5 mice) and the experiment group (5 mice) a dose of 200 μl was orally administered via direct injection to the stomach.
The mice were sacrificed 1.5 hours after oral administration. Blood samples were immediately taken and stored for further examination.
A sample of 600 μl of an extraction solution containing 0.1% v/v acetic acid in a methanol: acetonitrile 1:1 mixture, spiked with 20 ng/ml deuterated internal standards (ISs) was added to 200 μl serum sample. Samples were than vortexed and centrifuged in order to enable protein and cell precipitation. 3 ml of 0.1% v/v acetic acid in water was then added to the supernatants and the sample was loaded onto Agela Cleanert C8 solid phase extraction (SPE) cartridges (500 mg of sorbent, 50 μm particle size). Elution of phytocannabinoids from the columns was done using 2 ml of 0.1% v/v acetic acid in methanol, followed by an evaporation and reconstituted in 100 μl ethanol.
Cannabinoid quantitation was performed as described by P. Berman et al. (Berman et al., 2018).
Phytocannabinoids serum concentrations were evaluated 90 min after oral administration to mice, as detailed above. The control group included a Cremophor EL (castor oil) based emulsion formulation, widely used for its potent solubilizing effect (Comelli F, Giagnoni G, Bettoni I, Colleoni M, 2008). The study group included the F2 tea formulation prepared at 0.62 mg CBD/mL, with both formulations providing 5mg/kg of CBD per body weight.

Where [1] appears, read: CME in Cremophor EL emulsion (1:1:18 EtOH:Cremophor:PBS), read-out: Serum concentration, Control group.
Where [2] appears, read: po, F2 tea formulation, read-out: Serum Concentration, Experiment Group.

Where two headings read alike, the source gives them in different places.

For the compound `CCCCCc1cc(O)c2c(c1)OC(C)(CCC=C(C)C)C=C2` (centres unmarked) [CBC, cannabichromene], the concentration at 90 min by setting is: under setting [1], 247 ± 48 ng/mL; under setting [2], 210 ± 72 ng/mL.
As for `C=C(C)[C@@H]1CCC(C)=C[C@H]1c1c(O)cc(CCCCC)cc1O` [CBD, cannabidiol], the concentration at 90 min worked out at 3100 ± 970 ng/mL under setting [1] and 1500 ± 130 ng/mL under setting [2].
On the same counts, the results for `CCCCCc1cc(O)c2c(c1)OC(C)(C)c1ccc(C)cc1-2` [CBN, cannabinol] are 100 ± 5 ng/mL and 125 ± 12 ng/mL.
On the same counts, the results for `CCCCCc1cc(O)c2c(c1)OC(C)(C)[C@@H]1CCC(C)=C[C@@H]21` [THC, (—)-trans-Δ^9-tetrahydrocannabinol] are 343 ± 90 ng/mL and 115 ± 15 ng/mL.

The record behind these values is patent US20220378699A1, “SELF-E[…] EXTRACT” (ISRAEL PLASTICS AND RUBBER CENTER LTD., priority 2019, published 2022).
